Reference: patent publication US10975060B2, “High relaxivity gadolinium chelate compounds for use in magnetic resonance imaging” (BAYER PHARMA AKTIENGESELLSCHAFT, priority 2016, dated 2021)

Experiments:
Assay type in all cases: physicochemical
[1] = Dynamic CT diffusion phantom study (dialysis cassette in fetal bovine serum); conditions: dialysis cassette 20,000 MWCO, 20 mmol Gd/L, CT signal over 30 h
Protocol: The described dynamic CT diffusion study compares the ability of Examples 1-10 and Reference compounds 1 and 4 to pass a semipermeable membrane (20 kDa). A 128-row clinical CT device (SOMATOM Definition, 128; Siemens Healthcare, Forchheim, Germany) was used to monitor the diffusion through a semipermeable membrane at 100 kV and 104 mA. Single measurements were performed at 0 min, 1 min, 2 min, 3 min, 5 min, 10 min, 15 min, 20 min, 30 min, 45 min, 60 min, 2 h, 3 h, 5 h, 7 h, 22 h, 24 h, 30 h after placing the dialysis cassette (Slide-A-Lyser, 20,000 MWCO, 0.1-0.5 mL Capacity, Thermo Scientific, Roskilde, Denmark) filled with contrast agent in fetal bovine serum solution (FBS, Sigma, F7524). The images were reconstructed with a slice thickness of 2.4 mm and a B30 convolution kernel. The used concentration in the dialysis cassettes of the investigated Examples 1-10 and Reference compounds 1 and 4 was 20 mmol Gd/L.
The imaging results for all investigated Examples and the Reference compounds 1 and 4 for the time points 0 min and 30 h after placing the cassettes in the FBS solution are depicted in FIG. 1. For image analysis, regions of interest were manually drawn on 1 centrally located slice for each time point (a representative measurement region is indicated in FIG. 1: Image RC1).

[2] = Relaxivity measurements at 3.0 T (whole body MRI scanner, 37 °C) in water and human plasma; conditions: normalized to Gd, average ± standard deviation
Protocol: Relaxivity Measurements at 3.0 T
Relaxivity measurements at 3.0 T were performed with a whole body 3.0 T MRI Scanner (Philips Intera, Philips Healthcare, Hamburg, Germany) using a knee-coil (SENSE-Knee-8, Philips Healthcare, Hamburg, Germany). The sample tubes (CryoTubetm Vials, Thermo Scientific 1.8 mL, Roskilde, Denmark) were positioned in 3 rows of 4 and 5 tubes in a plastic holder in a box filled with water. The temperature was adjusted to 37° C. For the MRI sequence the shortest possible echo-time (TE) with 7.46 milliseconds was used. The inversion times were chosen to optimize the sequence to measure T1 values corresponding to the estimated T1 range of all relaxation times of contrast media containing solutions. The following inversion times (TIs) were applied: 50, 100, 150, 200, 300, 500, 700, 1000, 1400, 2100, 3200, and 4500 milliseconds. The sequence was run with a constant relaxation delay of 3.4 seconds after the registration of the last echo (variable TR in the range from 3450 to 7900 milliseconds). For details of the fit procedure, see Rohrer et. al. (Invest. Radiol. 2005; 40, 11: 715-724). The experimental matrix of the phantom measurement was 320×320.
The relaxivities were evaluated using three different concentrations of each compound (3 concentrations between 0.05 and 2 mM).
The T1 relaxation times of Example compounds were measured in water and human plasma. Human plasma preparation: For each experiment fresh blood was taken from a volunteer using 10 mL citrate-tubes (Sarstedt S-Monovette 02.1067.001, 10 mL, Citrate). The 10 mL citrate-tubes were carefully inverted 10 times to mix blood and anticoagulant and centrifuged for 15 minutes at 1811 g at room temperature (Eppendorf, Centrifuge 5810R).
The relaxivities ri (where i=1, 2) were calculated on the basis of the measured relaxation rates Ri in water and plasma: Ri=Ri(0)+ri[CGd], where Ri(0) represent the relaxation rate of the respective solvent and CGd the concentration of the compound normalized to the Gadolinium (Table 2).

[3] = Relaxivity measurements at 1.4 T (MiniSpec mq60, 60 MHz, 37 °C) in water and human plasma; conditions: 1.41 T, normalized to Gd
Protocol: Relaxivity Measurements at 1.4 T
Relaxivity measurements at 1.41 T were performed using a MiniSpec mq60 spectrometer (Bruker Analytik, Karlsruhe, Germany) operating at a resonance frequency of 60 MHz and a temperature of 37° C. The T1 relaxation times were determined using the standard inversion recovery (IR) method with a fixed relaxation delay of at least 5×T1. The variable inversion time (TI) was calculated automatically by the standard software of the MiniSpec mq60 (8 steps). The T2 measurements were done by using a Carr-Purcell-Meiboom-Gill (CPMG) pulse sequence, applying a relaxation delay of at least 5×T1.
Each relaxivity measurement was performed using three different Gd concentrations (3 concentrations between 0.05 and 2 mM). The T1 and T2 relaxation times of the example compounds 1 to 10 were measured in different media for example in water and human plasma. Human plasma preparation: For each experiment fresh blood was taken from a volunteer using 10 mL citrate-tubes (Sarstedt S-Monovette 02.1067.001, 10 mL, Citrate). The 10 mL citrate-tubes were carefully inverted 10 times to mix blood and anticoagulant and centrifuged for 15 minutes at 1811 g at room temperature (Eppendorf, Centrifuge 5810R).
The relaxivities ri (where i=1, 2) were calculated on the basis of the measured relaxation rates Ri in water and plasma: Ri=Ri(0)+ri[CGd], where Ri(0) represent the relaxation rate of the respective solvent and CGd the concentration of the compound normalized to the Gadolinium. The Gadolinium concentrations of the investigated solutions were verified by Inductively Coupled Plasma Mass Spectrometry (ICP-MS Agilent 7500a, Waldbronn, Germany).

[4] = Water solubility (exploratory, 10 mM Tris-HCl, 20 °C); conditions: water (10 mM Tris-HCl buffer), pH 7.4
Protocol: The exploratory water solubilities of the compounds were determined at room temperature (20° C.) in 0.5 mL buffer solution (10 mM Tris-HCl) in the microcentrifuge tubes (Eppendorf, 2.0 mL safe-lock caps). The solid compounds were added stepwise to the buffer solution. The suspension was mixed using a shaker (Heidolph Reax 2000) and treated 5 min in an ultrasound bath (Bandelin, Sonorex Super RK255H).

In the case of `COCCN(CC(=O)NCC(CNC(=O)CN(CCOC)C(=O)CN1CCN(CC(=O)[O-])CCN(CC(=O)[O-])CCN(CC(=O)[O-])CC1)(CNC(=O)CN(CCOC)C(=O)CN1CCN(CC(=O)[O-])CCN(CC(=O)[O-])CCN(CC(=O)[O-])CC1)CNC(=O)CN(CCOC)C(=O)CN1CCN(CC(=O)[O-])CCN(CC(=O)[O-])CCN(CC(=O)[O-])CC1)C(=O)CN1CCN(CC(=O)[O-])CCN(CC(=O)[O-])CCN(CC(=O)[O-])CC1.[Gd+3].[Gd+3].[Gd+3].[Gd+3]` [Example 3, Tetragadolinium {4,10-bis(carboxylatomethyl)-7-[15-(2-methoxyethyl)-10,10-bis[({[(2-methoxyethyl){[4,7,10-tris(carboxylatomethyl)-1,4,7,10-tetraazacyclododecan-1-yl]-acetyl}amino]acetyl}amino)methyl]-7,13,16-trioxo-5-{[4,7,10-tris(carboxylatomethyl)-1,4,7,10-tetraazacyclododecan-1-yl]acetyl}-2-oxa-5,8,12,15-tetraazaheptadecan-17-yl]-1,4,7,10-tetraazacyclododecan-1-yl}acetate], the “Diffusion half-live (20 kDa)” value [1] is reported as 11.6 h, the r1 human plasma [2] is reported as 10.9 ± 0.1 L/mmol/s and the r1 water [2] is reported as 9.5 ± 0.1 L/mmol/s. For the same molecule, the r1 human plasma [3] was 11.7 L/mmol/s, the r1 water [3] was 10.3 L/mmol/s and the Solubility [4] was >1000 mg/100 mL.

In the case of `CCOCCN(CC(=O)NCC(CNC(=O)CN(CCOCC)C(=O)CN1CCN(CC(=O)[O-])CCN(CC(=O)[O-])CCN(CC(=O)[O-])CC1)(CNC(=O)CN(CCOCC)C(=O)CN1CCN(CC(=O)[O-])CCN(CC(=O)[O-])CCN(CC(=O)[O-])CC1)CNC(=O)CN(CCOCC)C(=O)CN1CCN(CC(=O)[O-])CCN(CC(=O)[O-])CCN(CC(=O)[O-])CC1)C(=O)CN1CCN(CC(=O)[O-])CCN(CC(=O)[O-])CCN(CC(=O)[O-])CC1.[Gd+3].[Gd+3].[Gd+3].[Gd+3]` [Example 4, Tetragadolinium {4,10-bis(carboxylatomethyl)-7-[16-(2-ethoxyethyl)-11,11-bis[({[(2-ethoxyethyl){[4,7,10-tris(carboxylatomethyl)-1,4,7,10-tetraazacyclododecan-1-yl]-acetyl}amino]acetyl}amino)methyl]-8,14,17-trioxo-6-{[4,7,10-tris(carboxylatomethyl)-1,4,7,10-tetraazacyclododecan-1-yl]acetyl}-3-oxa-6,9,13,16-tetraazaoctadecan-18-yl]-1,4,7,10-tetraazacyclododecan-1-yl}acetate], the “Diffusion half-live (20 kDa)” value [1] is reported as 10.1 h, the r1 human plasma [2] is reported as 11.3 ± 0.01 L/mmol/s and the r1 water [2] is reported as 10.1 ± 0.2 L/mmol/s. For the same molecule, the r1 human plasma [3] was 12.5 L/mmol/s, the r1 water [3] was 11.1 L/mmol/s and the Solubility [4] was >1000 mg/100 mL.

With `O=C([O-])CN1CCN(CC(=O)[O-])CCN(CC(=O)N(CC(=O)NCC(CNC(=O)CN(C(=O)CN2CCN(CC(=O)[O-])CCN(CC(=O)[O-])CCN(CC(=O)[O-])CC2)C2CC2)(CNC(=O)CN(C(=O)CN2CCN(CC(=O)[O-])CCN(CC(=O)[O-])CCN(CC(=O)[O-])CC2)C2CC2)CNC(=O)CN(C(=O)CN2CCN(CC(=O)[O-])CCN(CC(=O)[O-])CCN(CC(=O)[O-])CC2)C2CC2)C2CC2)CCN(CC(=O)[O-])CC1.[Gd+3].[Gd+3].[Gd+3].[Gd+3]` [Example 7, Tetragadolinium [4,10-bis(carboxylatomethyl)-7-{3,13-dicyclopropyl-8,8-bis({[(cyclopropyl{[4,7,10-tris(carboxylatomethyl)-1,4,7,10-tetraazacyclododecan-1-yl]acetyl}-amino)acetyl]amino}methyl)-2,5,11,14-tetraoxo-15-[4,7,10-tris(carboxylatomethyl)-1,4,7,10-tetraazacyclododecan-1-yl]-3,6,10,13-tetraazapentadec-1-yl}-1,4,7,10-tetra-azacyclododecan-1-yl]acetate] the “Diffusion half-live (20 kDa)” value [1] was 14.0 h, the r1 human plasma [2] was 11.1 ± 0.1 L/mmol/s and the r1 water [2] was 9.7 ± 0.1 L/mmol/s. The r1 human plasma [3] was 12.1 L/mmol/s, the r1 water [3] was 10.6 L/mmol/s and the Solubility [4] was >1000 mg/100 mL.

In the case of `CCN(CC(=O)NCC(CNC(=O)CN(CC)C(=O)CN1CCN(CC(=O)[O-])CCN(CC(=O)[O-])CCN(CC(=O)[O-])CC1)(CNC(=O)CN(CC)C(=O)CN1CCN(CC(=O)[O-])CCN(CC(=O)[O-])CCN(CC(=O)[O-])CC1)CNC(=O)CN(CC)C(=O)CN1CCN(CC(=O)[O-])CCN(CC(=O)[O-])CCN(CC(=O)[O-])CC1)C(=O)CN1CCN(CC(=O)[O-])CCN(CC(=O)[O-])CCN(CC(=O)[O-])CC1.[Gd+3].[Gd+3].[Gd+3].[Gd+3]` [Example 2, Tetragadolinium [4,10-bis(carboxylatomethyl)-7-{3,13-diethyl-8,8-bis({[(ethyl{[4,7,10-tris(carboxylatomethyl)-1,4,7,10-tetraazacyclododecan-1-yl]acetyl}amino)acetyl]-amino}methyl)-2,5,11,14-tetraoxo-15-[4,7,10-tris(carboxylatomethyl)-1,4,7,10-tetraaza-cyclododecan-1-yl]-3,6,10,13-tetraazapentadec-1-yl}-1,4,7,10-tetraazacyclododecan-1-yl]acetate], the “Diffusion half-live (20 kDa)” value [1] is reported as 13.3 h, the r1 human plasma [2] is reported as 11.3 ± 0.1 L/mmol/s and the r1 water [2] is reported as 9.4 ± 0.1 L/mmol/s. For the same molecule, the r1 human plasma [3] was 11.6 L/mmol/s, the r1 water [3] was 10.4 L/mmol/s and the Solubility [4] was >1000 mg/100 mL.
